Where two headings read alike, the source gives them in different places.
Assays:
Format in all cases: in vivo, human
gallbladder = assay: Specific gallbladder findings per independent ultrasound review
Protocol: Gallbladder volume was assessed by ultrasound after a ≥8 hours fast at screening (within 21 days prior to randomization) and before the motesanib morning dose on days 8 and 15 of cycle 1, on day 1 of cycles 2 and 3, every 6 weeks thereafter, and at the safety follow-up (30 to 33 days after the last dose). Ultrasound was performed weekly when motesanib was withheld and weekly for 4 weeks following treatment discontinuation. Gallbladder ultrasound measurements were assessed by independent central radiologic review (MedQIA, Los Angeles, CA, USA). Gallbladder ejection fraction was assessed by investigators or other study site personnel using CCK-HIDA at screening (within 21 days of randomization), on day 1 of cycle 2, day 1 of cycle 6 (±3 days), and at the safety follow-up. Study-specific training and standard operating procedures were supplied to all radiology technicians.

[1] = test system: patients with advanced metastatic solid tumors; assay: Adverse events (NCI CTCAE version 3.0)
Protocol: AEs occurring during treatment and through the safety follow-up were recorded and graded according to the National Cancer Institute Common Terminology Criteria for Adverse Events (version 3.0).

[2] = test system: advanced metastatic solid tumors; assay: Tumor response per RECIST (investigator)
Protocol: Tumor response per RECIST [27] was assessed by the investigators. Magnetic resonance imaging or CT scans were performed at screening, every 6 weeks thereafter, and at the safety follow-up. Complete or partial responses were confirmed >28 days after the initial response assessment throughout the study. Patients who discontinued without a postbaseline tumor assessment or confirmation were considered nonresponders.
The ultrasound and CCK-HIDA gallbladder analysis sets, which included all randomized patients who received ≥1 dose of motesanib and had baseline and ≥1 evaluable follow-up ultrasound or CCK-HIDA, respectively, were used for the principal analysis of endpoints related to gallbladder size and characteristics. For each dosing scheme, estimates for the mean and maximum change from baseline in gallbladder size (volume as measured by ultrasound) and function (ejection fraction as measured by CCK-HIDA scan) were calculated. Mean change from baseline was calculated by taking the difference between the baseline gallbladder measurement and the average gallbladder measurement observed during study treatment. The mean (95% CI) difference was then calculated across all patients for each treatment arm, and for the whole study population. Maximum change from baseline in gallbladder size or volume was calculated by taking the difference between the baseline gallbladder measurement and the maximum gallbladder measurement observed during study treatment. The mean (95% CI) maximum change from baseline was then calculated across all patients for each treatment arm, and for the whole study population. Reversibility of changes in gallbladder volume and ejection fraction were evaluated calculating changes between the last on-treatment measurement and the last available measurement following the discontinuation of motesanib. Covariates (treatment, age, sex, body mass index, and nonsteroidal anti-inflammatory drug [NSAID] use) were explored in a linear regression model for potential relationships with gallbladder volume. Objective response was assessed for the safety analysis set, including only patients with measureable disease at baseline.

[3] = Pharmacokinetic analysis of plasma motesanib concentrations (noncompartmental); settings: for concentration at 24 h: read-out: Median Cmin (trough plasma concentration at 24 hours postdose); for Cmax: po, read-out: Median Cmax
Protocol: Blood samples were collected as follows: predose and at 30 minutes and 1, 2, 4, 6, 8, and 24 hours postdose on day 1 of weeks 1 and 4, and predose and 1 to 2 hours postdose at weeks 2, 3, and 7 and every 3 weeks thereafter. […] Motesanib concentrations were assessed as described previously.

[4] = Arm B, 75 mg BID 2 wk on/1 wk off, post treatment, n = 9
[5] = Arm C, 75 mg BID 5 d on/2 d off
[6] = Arm C, 75 mg BID 5 d on/2 d off, post baseline, n = 11
[7] = Arm C, 75 mg BID 5 d on/2 d off, post treatment, n = 8

CC1(C)CNc2cc(NC(=O)c3cccnc3NCc3ccncc3)ccc21 [Motesanib]
Pericholecystic fluid, patient incidence (gallbladder; [4]): 0 (0) n (%) | Sludge, patient incidence (gallbladder; [4]): 4 (44) n (%) | Incidence of biliary sludge (gallbladder; [5]): 27% | Common duct dilation, patient incidence (gallbladder; [6]): 0 (0) n (%) | Gallstones, patient incidence (gallbladder; [6]): 0 (0) n (%) | Pericholecystic fluid, patient incidence (gallbladder; [6]): 0 (0) n (%) | Sludge, patient incidence (gallbladder; [6]): 3 (27) n (%) | Common duct dilation, patient incidence (gallbladder; [7]): 0 (0) n (%) | Gallstones, patient incidence (gallbladder; [7]): 0 (0) n (%) | Pericholecystic fluid, patient incidence (gallbladder; [7]): 0 (0) n (%) | Sludge, patient incidence (gallbladder; [7]): 0 (0) n (%) | Patients who developed de novo gallstones during treatment (gallbladder; all arms): Two | Incidence of grade ≥3 treatment-related AEs ([1]; Arm A, 125 mg QD): 32% | Patients with serious grade 3 acute cholecystitis resulting in cholecystectomy ([1]; Arm A, approximately 1 month after treatment initiation): one | Patients with cholecystitis that resolved after treatment discontinuation ([1]; Arm A, grades 1, 2, 3, n = 1 each): Three | Patients with grade 1 gallbladder disorders (gallbladder dysfunction, gallbladder wall thickening) ([1]; Arm A, ongoing at safety follow-up): two | Incidence of grade ≥3 treatment-related AEs ([1]; Arm B, 75 mg BID 2 wk on/1 wk off): 42% | Incidence of grade ≥3 treatment-related AEs [1, 5]: 33% | Patients with right upper quadrant pain during the study ([1]; all patients): Twelve | Patients with grade 4 AEs ([1]; all patients (one each in Arms B and C)): Two | Gallbladder toxicity events (all considered treatment-related), incidence ([1]; occurred only in Arm A, 125 mg QD): 12% | Durable (≥24 weeks) stable disease ([2]; Arm A, n = 6): 25% | Progressive disease ([2]; Arm A, n = 8): 33% | Stable disease as best tumor response ([2]; Arm A, n = 15): 63% | Durable (≥24 weeks) stable disease ([2]; Arm B, n = 1): 8% | Progressive disease ([2]; Arm B, n = 3): 25% | Stable disease as best tumor response ([2]; Arm B, n = 6): 50% | Patients with confirmed partial response ([2]; Arm B, stage IV thyroid cancer): one | Durable (≥24 weeks) stable disease ([2]; Arm C, n = 1): 9% | Progressive disease ([2]; Arm C, n = 4): 36% | Stable disease as best tumor response ([2]; Arm C, n = 7): 64% | Complete responses ([2]; all patients): No complete responses were achieved | Durable (≥24 weeks) stable disease ([2]; all patients (8 patients)): 17% | Progressive disease ([2]; all patients (fifteen patients)): 32% | Stable disease as best tumor response ([2]; all patients (twenty-eight patients)): 60% | Overall objective response rate ([2]; all patients with measurable disease at baseline, RECIST): 2% | Median motesanib concentration after wash-out period ([3]; Arm B, after the 1-week wash-out period, limit of quantitation 0.2 ng/mL): < 0.2 ng/mL | Median motesanib concentration after wash-out period ([3]; Arm C, after the 2-day wash-out period): 1.2 ng/mL | Drug accumulation ([3]; after QD administration): no evidence of drug accumulation | concentration at 24 h ([3]; human, plasma, oral, 75 mg, Arm B, 75 mg BID 2 wk on/1 wk off): 0.06 µg/mL | concentration at 24 h ([3]; human, plasma, oral, 75 mg, Arm C, 75 mg BID 5 d on/2 d off): 0.035 µg/mL | concentration at 24 h ([3]; human, plasma, oral, 125 mg, Arm A, 125 mg QD): 0.014 µg/mL | AUC ([3]; human, plasma, oral, range across the three dosing regimens, read-out: Median AUC): 1.9 to 3 µg·h/mL | Cmax ([3]; human, plasma, 75 mg, Arm B, 75 mg BID 2 wk on/1 wk off, plasma, oral): 0.323 µg/mL | Cmax ([3]; human, plasma, 75 mg, Arm C, 75 mg BID 5 d on/2 d off, plasma, oral): 0.355 µg/mL | Cmax ([3]; human, plasma, 125 mg, Arm A, 125 mg QD, plasma, oral): 0.63 µg/mL
